From patent publication US10611762B2, “Crystalline forms of a FGFR inhibitor and processes for preparing the same” (Incyte Corporation, priority 2017, dated 2020)
Values after ≈ are worked out from the molar mass of the structure shown.

Tests used:
Format in all cases: physicochemical
[1] = Competitive slurry experiments (stability relationship of Compound 1 forms); settings: in acetone/water (2:1) and acetone/water (1:1), 23-25° C.
Method: To evaluate the transformation of Compound 1 solid forms, competitive slurry experiments in production crystallization solvents at 23-25° C. were performed with a mixture of […] polymorphs (Form I through Form XI) according to the procedures in Table 25 (acetone/water 2:1) and Table 26 (acetone/water 1:1).

[2] = Solubility measurement in various solvents at 50 ± 1° C. (Procedure 2)
Method: (§1) The solubility of the Compound 1 Form I was measured according to Procedure 1 for solubility in 23±1° C. (Table 13) and Procedure 2 for 50±1° C.

[3] = Solubility measurement in various solvents at 23 ± 1° C. (Procedure 1)
Method: as §1

Compound: C=CC(=O)NCc1cc2c(cn1)CN(c1c(F)c(OC)cc(OC)c1F)C(=O)C21CC1 [Compound 1 Form I, N-((2′-(2,6-difluoro-3,5-dimethoxyphenyl)-3′-oxo-2′,3′-dihydro-1′H-spiro[cyclopropane-1,4′-[2,7]naphthyridine]-6′-yl)methyl)acrylamide]
- Relative stability of polymorphic forms [1]: most stable polymorphic form
- solubility ([2]; 1-Propanol, 50 °C, organic solvent or mixture, thermodynamic from solid, 1-Propanol, read-out: Solubility at 50 ± 1° C.): 2890 µg/mL (≈ 6.73 mM)
- solubility ([2]; 2-methoxyethanol, 50 °C, organic solvent or mixture, thermodynamic from solid, 2-Methoxyethanol, read-out: Solubility at 50 ± 1° C.): 36600 µg/mL (≈ 85.3 mM)
- solubility ([2]; 50 °C, organic solvent or mixture, thermodynamic from solid, at 50° C. in DMSO, DMF, DCM/MeOH (1:1), THF/water (4:1), acetone/water (4:1) and chloroform, read-out: Solubility (completely soluble)): > 50000 µg/mL
- solubility ([2]; 50 °C, organic solvent or mixture, thermodynamic from solid, at 50° C. in heptane, hexane, toluene, MTBE, isobutyl acetate, IPAc, water, and acetone water (1:4), read-out: Solubility (insoluble)): < 1000 µg/mL
- solubility ([2]; Acetone/water (1:1), 50 °C, aqueous with cosolvent or surfactant or cyclodextrin, thermodynamic from solid, Acetone/water (1:1), read-out: Solubility at 50 ± 1° C.): 12600 µg/mL (≈ 29.4 mM)
- solubility ([2]; Acetone/water (1:2), 50 °C, aqueous with cosolvent or surfactant or cyclodextrin, thermodynamic from solid, Acetone/water (1:2), read-out: Solubility at 50 ± 1° C.): 3530 µg/mL (≈ 8.22 mM)
- solubility ([2]; Acetone/water (1:4), 50 °C, aqueous with cosolvent or surfactant or cyclodextrin, thermodynamic from solid, Acetone/water (1:4), read-out: Solubility at 50 ± 1° C.): 570 µg/mL (≈ 1.33 mM)
- solubility ([2]; Acetone/water (2:1), 50 °C, aqueous with cosolvent or surfactant or cyclodextrin, thermodynamic from solid, Acetone/water (2:1), read-out: Solubility at 50 ± 1° C.): 47000 µg/mL (≈ 109 mM)
- solubility ([2]; Acetone/water (4:1), 50 °C, aqueous with cosolvent or surfactant or cyclodextrin, thermodynamic from solid, Acetone/water (4:1), read-out: Solubility at 50 ± 1° C.): > 50000 µg/mL
- solubility ([2]; DCM/MeOH (1:1), 50 °C, organic solvent or mixture, thermodynamic from solid, DCM/MeOH (1:1), read-out: Solubility at 50 ± 1° C.): > 50000 µg/mL
- solubility ([2]; DMF, 50 °C, organic solvent or mixture, thermodynamic from solid, DMF, read-out: Solubility at 50 ± 1° C.): > 50000 µg/mL
- solubility ([2]; DMSO, 50 °C, organic solvent or mixture, thermodynamic from solid, DMSO, read-out: Solubility at 50 ± 1° C.): > 50000 µg/mL
- solubility ([2]; EtOAc, 50 °C, organic solvent or mixture, thermodynamic from solid, EtOAc, read-out: Solubility at 50 ± 1° C.): 2710 µg/mL (≈ 6.31 mM)
- solubility ([2]; EtOH, 50 °C, organic solvent or mixture, thermodynamic from solid, EtOH, read-out: Solubility at 50 ± 1° C.): 8560 µg/mL (≈ 19.9 mM)
- solubility ([2]; IPA, 50 °C, organic solvent or mixture, thermodynamic from solid, IPA, read-out: Solubility at 50 ± 1° C.): 2220 µg/mL (≈ 5.17 mM)
- solubility ([2]; IPAc, 50 °C, organic solvent or mixture, thermodynamic from solid, IPAc, read-out: Solubility at 50 ± 1° C.): 980 µg/mL (≈ 2.28 mM)
- solubility ([2]; MEK, 50 °C, organic solvent or mixture, thermodynamic from solid, MEK, read-out: Solubility at 50 ± 1° C.): 3730 µg/mL (≈ 8.69 mM)
- solubility ([2]; MIBK, 50 °C, organic solvent or mixture, thermodynamic from solid, MIBK, read-out: Solubility at 50 ± 1° C.): 2950 µg/mL (≈ 6.87 mM)
- solubility ([2]; MeCN, 50 °C, organic solvent or mixture, thermodynamic from solid, MeCN, read-out: Solubility at 50 ± 1° C.): 11600 µg/mL (≈ 26.9 mM)
- solubility ([2]; THF, 50 °C, organic solvent or mixture, thermodynamic from solid, THF, read-out: Solubility at 50 ± 1° C.): 11300 µg/mL (≈ 26.3 mM)
- solubility ([2]; THF/water (4:1), 50 °C, organic solvent or mixture, thermodynamic from solid, THF/water (4:1), read-out: Solubility at 50 ± 1° C.): > 50000 µg/mL
- solubility ([2]; acetone, 50 °C, organic solvent or mixture, thermodynamic from solid, Acetone, read-out: Solubility at 50 ± 1° C.): 15500 µg/mL (≈ 36.1 mM)
- solubility ([2]; ethyl formate, 50 °C, organic solvent or mixture, thermodynamic from solid, Ethyl formate, read-out: Solubility at 50 ± 1° C.): 6580 µg/mL (≈ 15.3 mM)
- solubility ([2]; hexane, 50 °C, organic solvent or mixture, thermodynamic from solid, Hexane, read-out: Solubility at 50 ± 1° C.): 60 µg/mL (≈ 0.14 mM)
- solubility ([2]; isobutyl acetate, 50 °C, organic solvent or mixture, thermodynamic from solid, Isobutyl acetate, read-out: Solubility at 50 ± 1° C.): 750 µg/mL (≈ 1.75 mM)
- solubility ([2]; methanol, 50 °C, organic solvent or mixture, thermodynamic from solid, Methanol, read-out: Solubility at 50 ± 1° C.): 17900 µg/mL (≈ 41.6 mM)
- solubility ([2]; n-BuOH, 50 °C, organic solvent or mixture, thermodynamic from solid, n-BuOH, read-out: Solubility at 50 ± 1° C.): 6200 µg/mL (≈ 14.4 mM)
- solubility ([2]; organic solvent or mixture, thermodynamic from solid, at 50° C. in MeCN, 1,4-dioxane, MeOH, 2-methoxyethanol, THF, acetone, n-BuOH, EtOH, ethyl formate, 1-propanol, MEK, acetone water (2:1), acetone water (1:1), MIBK, EtOAc, IPA, and acetone water (1:2), read-out: Solubility (slightly soluble)): 1000 to 50000 µg/mL (≈ 2.33 to 116 mM)
- solubility ([2]; water, 50 °C, water, thermodynamic from solid, Water, read-out: Solubility at 50 ± 1° C.): 10 µg/mL (≈ 0.0233 mM)
- solubility ([3]; 1-Propanol, 23 °C, organic solvent or mixture, thermodynamic from solid, 1-Propanol, read-out: Solubility at 23 ± 1° C.): 1720 µg/mL (≈ 4.01 mM)
- solubility ([3]; 2-methoxyethanol, 23 °C, organic solvent or mixture, thermodynamic from solid, 2-Methoxyethanol, read-out: Solubility at 23 ± 1° C.): 20200 µg/mL (≈ 47 mM)
- solubility ([3]; Acetone/water (1:1), 23 °C, aqueous with cosolvent or surfactant or cyclodextrin, thermodynamic from solid, Acetone/water (1:1), read-out: Solubility at 23 ± 1° C.): 3970 µg/mL (≈ 9.24 mM)
- solubility ([3]; Acetone/water (1:2), 23 °C, aqueous with cosolvent or surfactant or cyclodextrin, thermodynamic from solid, Acetone/water (1:2), read-out: Solubility at 23 ± 1° C.): 860 µg/mL (≈ 2 mM)
- solubility ([3]; Acetone/water (1:4), 23 °C, aqueous with cosolvent or surfactant or cyclodextrin, thermodynamic from solid, Acetone/water (1:4), read-out: Solubility at 23 ± 1° C.): 170 µg/mL (≈ 0.396 mM)
- solubility ([3]; Acetone/water (2:1), 23 °C, aqueous with cosolvent or surfactant or cyclodextrin, thermodynamic from solid, Acetone/water (2:1), read-out: Solubility at 23 ± 1° C.): 12500 µg/mL (≈ 29 mM)
- solubility ([3]; Acetone/water (4:1), 23 °C, aqueous with cosolvent or surfactant or cyclodextrin, thermodynamic from solid, Acetone/water (4:1), read-out: Solubility at 23 ± 1° C.): 19400 µg/mL (≈ 45.2 mM)
- solubility ([3]; DCM/MeOH (1:1), 23 °C, organic solvent or mixture, thermodynamic from solid, DCM/MeOH (1:1), read-out: Solubility at 23 ± 1° C.): > 50000 µg/mL
- solubility ([3]; DMF, 23 °C, organic solvent or mixture, thermodynamic from solid, DMF, read-out: Solubility at 23 ± 1° C.): > 50000 µg/mL
- solubility ([3]; DMSO, 23 °C, organic solvent or mixture, thermodynamic from solid, DMSO, read-out: Solubility at 23 ± 1° C.): > 50000 µg/mL
- solubility ([3]; DMSO, DMF, DCM/MeOH (1:1), THF/water (4:1), 23 °C, organic solvent or mixture, thermodynamic from solid, at 23° C. in DMSO, DMF, DCM/MeOH (1:1), and THF/water (4:1), read-out: Solubility (completely soluble)): > 50000 µg/mL
- solubility ([3]; Dichloromethane, 23 °C, organic solvent or mixture, thermodynamic from solid, Dichloromethane, read-out: Solubility at 23 ± 1° C.): 12400 µg/mL (≈ 29 mM)
- solubility ([3]; EtOAc, 23 °C, organic solvent or mixture, thermodynamic from solid, EtOAc, read-out: Solubility at 23 ± 1° C.): 890 µg/mL (≈ 2.07 mM)
- solubility ([3]; EtOH, 23 °C, organic solvent or mixture, thermodynamic from solid, EtOH, read-out: Solubility at 23 ± 1° C.): 2010 µg/mL (≈ 4.68 mM)
- solubility ([3]; IPA, 23 °C, organic solvent or mixture, thermodynamic from solid, IPA, read-out: Solubility at 23 ± 1° C.): 900 µg/mL (≈ 2.1 mM)
- solubility ([3]; IPAc, 23 °C, organic solvent or mixture, thermodynamic from solid, IPAc, read-out: Solubility at 23 ± 1° C.): 440 µg/mL (≈ 1.02 mM)
- solubility ([3]; MEK, 23 °C, organic solvent or mixture, thermodynamic from solid, MEK, read-out: Solubility at 23 ± 1° C.): 3580 µg/mL (≈ 8.34 mM)
- solubility ([3]; MIBK, 23 °C, organic solvent or mixture, thermodynamic from solid, MIBK, read-out: Solubility at 23 ± 1° C.): 910 µg/mL (≈ 2.12 mM)
- solubility ([3]; MeCN, 23 °C, organic solvent or mixture, thermodynamic from solid, MeCN, read-out: Solubility at 23 ± 1° C.): 4590 µg/mL (≈ 10.7 mM)
- solubility ([3]; THF, 23 °C, organic solvent or mixture, thermodynamic from solid, THF, read-out: Solubility at 23 ± 1° C.): 3770 µg/mL (≈ 8.78 mM)
- solubility ([3]; THF/water (4:1), 23 °C, organic solvent or mixture, thermodynamic from solid, THF/water (4:1), read-out: Solubility at 23 ± 1° C.): > 50000 µg/mL
- solubility ([3]; acetone, 23 °C, organic solvent or mixture, thermodynamic from solid, Acetone, read-out: Solubility at 23 ± 1° C.): 5100 µg/mL (≈ 11.9 mM)
- Solubility (slightly soluble) ([3]; at 23° C. in MeCN, 1,4-dioxane, MeOH, 2-methoxyethanol, THF, acetone, n-BuOH, EtOH, ethyl formate, 1-propanol, MEK, acetone water (2:1), acetone water (1:1), chloroform and dichloromethane): 1000 to 50000 µg/mL
- solubility ([3]; ethyl formate, 23 °C, organic solvent or mixture, thermodynamic from solid, Ethyl formate, read-out: Solubility at 23 ± 1° C.): 2200 µg/mL (≈ 5.12 mM)
- solubility ([3]; isobutyl acetate, 23 °C, organic solvent or mixture, thermodynamic from solid, Isobutyl acetate, read-out: Solubility at 23 ± 1° C.): 280 µg/mL (≈ 0.652 mM)
- solubility ([3]; methanol, 23 °C, organic solvent or mixture, thermodynamic from solid, Methanol, read-out: Solubility at 23 ± 1° C.): 5350 µg/mL (≈ 12.5 mM)
- solubility ([3]; n-BuOH, 23 °C, organic solvent or mixture, thermodynamic from solid, n-BuOH, read-out: Solubility at 23 ± 1° C.): 1180 µg/mL (≈ 2.75 mM)
- solubility ([3]; organic solvent or mixture, thermodynamic from solid, at 23° C. in heptane, hexane, toluene, MTBE, isobutyl acetate, IPAc, water, acetone water (1:4), MIBK, EtOAc, IPA, and acetone water (1:2), read-out: Solubility (insoluble)): < 1000 µg/mL
- solubility ([3]; water, 23 °C, water, thermodynamic from solid, Water, read-out: Solubility at 23 ± 1° C.): 10 µg/mL (≈ 0.0233 mM)

Compound: C=CC(=O)NCc1cc2c(cn1)CN(c1c(F)c(OC)cc(OC)c1F)C(=O)C21CC1 [Form III]
- solubility ([2]; 1,4-dioxane, 50 °C, organic solvent or mixture, thermodynamic from solid, 1,4-Dioxane, read-out: Solubility at 50 ± 1° C.): 37800 µg/mL (≈ 88 mM)
- solubility ([3]; 1,4-dioxane, 23 °C, organic solvent or mixture, thermodynamic from solid, 1,4-Dioxane, read-out: Solubility at 23 ± 1° C.): 3020 µg/mL (≈ 7.03 mM)

Compound: C=CC(=O)NCc1cc2c(cn1)CN(c1c(F)c(OC)cc(OC)c1F)C(=O)C21CC1 [Form II]
- solubility ([2]; Chloroform, 50 °C, organic solvent or mixture, thermodynamic from solid, Chloroform, read-out: Solubility at 50 ± 1° C.): > 50000 µg/mL
- solubility ([3]; Chloroform, 23 °C, organic solvent or mixture, thermodynamic from solid, Chloroform, read-out: Solubility at 23 ± 1° C.): 26700 µg/mL (≈ 62.1 mM)

Compound: C=CC(=O)NCc1cc2c(cn1)CN(c1c(F)c(OC)cc(OC)c1F)C(=O)C21CC1 [Form IV]
- solubility ([2]; toluene, 50 °C, organic solvent or mixture, thermodynamic from solid, Toluene, read-out: Solubility at 50 ± 1° C.): 170 µg/mL (≈ 0.396 mM)
- solubility ([3]; toluene, 23 °C, organic solvent or mixture, thermodynamic from solid, Toluene, read-out: Solubility at 23 ± 1° C.): 150 µg/mL (≈ 0.349 mM)
